Data as given in patent US10471046B2, “Method for treating, preventing, or reducing the risk of skin infection” (Melinta Subsidiary Corp., priority 2014, dated 2019).
Converted amounts (≈) assume the structure as drawn.

Tested on: S. aureus
Experiment: Minimum inhibitory concentrations (MICs) for S. aureus of exemplary compounds (Table 2)
Type: cell-based
Conditions: Staphylococcus aureus, minimum inhibitory concentrations for S. aureus; read-out: MICs
From the text: Exemplary compounds in accordance with the invention are listed in Table 2 with their minimum inhibitory concentrations (MICs) (μg/mL) for S. aureus:
Furthermore, the antibiotic compounds can be assayed for anti-proliferative or anti-infective properties on a cellular level. For example, where the target organism is a microorganism, the activity of compounds of interest can be assayed by growing the microorganisms of interest in media either containing or lacking the compound. Growth inhibition can be indicative that the molecule could be acting as a protein synthesis inhibitor. […] For this purpose, a panel of bacterial strains can be assembled to include a variety of target pathogenic species, some containing resistance mechanisms that have been characterized. Use of such a panel of organisms permits the determination of structure-activity relationships not only in regards to potency and spectrum, but also with a view to obviating resistance mechanisms. The assays can be performed in microtiter trays according to conventional methodologies as published by The National Committee for Clinical Laboratory Standards (NCCLS) guidelines (NCCLS. M7-A5-Methods for Dilution Antimicrobial Susceptibility Tests for Bacteria That Grow Aerobically; Approved Standard-Fifth Edition. NCCLS Document M100-S12/M7 (ISBN 1-56238-394-9)).

MIC [µg/mL] | Compound
2 (≈ 4.14 µM) | CC(=O)NC[C@H]1CN(c2ccc(-c3ccc(CNCCSc4ncc[nH]4)cc3)c(F)c2)C(=O)O1 [Compound 5008, N-[3-(2-Fluoro-4′-{[2-(1H-imidazol-2-ylsulfanyl)-ethylamino]-methyl}-biphenyl-4-yl)-2-oxo-oxazolidin-5-(S)-ylmethyl]-acetamide]
0.25 (≈ 0.551 µM) | CC(=O)NC[C@H]1CN(c2ccc(-c3ccc(CNCc4nnnn4C)cc3)c(F)c2)C(=O)O1 [Compound 4283, N-[3-(2-Fluoro-4′-{[(1-methyl-1H-tetrazol-5-ylmethyl)-amino]-methyl}-biphenyl-4-yl)-2-oxo-oxazolidin-5-(S)-ylmethyl]-acetamide]
4 (≈ 7.3 µM) | CC(=O)NC[C@H]1CN(c2ccc(-c3ccc(CN(Cc4[nH]nnc4C)Cc4[nH]nnc4C)cc3)c(F)c2)C(=O)O1 [Compound 4270, N-[3-(4′-{[Bis-(5-methyl-3H-[1,2,3]triazol-4-ylmethyl)-amino]-methyl}-2-fluoro-biphenyl-4-yl)-2-oxo-oxazolidin-5-(S)-ylmethyl]-acetamide]
1 (≈ 2.12 µM) | CC(=O)NC[C@H]1CN(c2ccc(-c3ccc(CSc4nc(C)cs4)cc3)c(F)c2)C(=O)O1 [Compound 2031, N-{3-[2-Fluoro-4′-(4-methyl-thiazol-2-ylsulfanylmethyl)-biphenyl-4-yl]-2-oxo-oxazolidin-5-(S)-ylmethyl}-acetamide]
16 (≈ 32.2 µM) | CC(=O)NC[C@H]1CN(c2ccc(-c3ccc(CNC(=O)Cn4cc(CO)nn4)cc3)c(F)c2)C(=O)O1 [Compound 4240, N-{4′-[5-(S)-(Acetylamino-methyl)-2-oxo-oxazolidin-3-yl]-2′-fluoro-biphenyl-4-ylmethyl}-2-(4-hydroxymethyl-[1,2,3]triazol-1-yl)-acetamide]
2 (≈ 3.79 µM) | CC(=O)NC[C@H]1CN(c2ccc(-c3ccc(CNCc4cc(-c5ccccc5)oc4C)cc3)c(F)c2)C(=O)O1 [Compound 4130, N-[3-(2-Fluoro-4′-{[(2-methyl-5-phenyl-furan-3-ylmethyl)-amino]-methyl}-biphenyl-4-yl)-2-oxo-oxazolidin-5-(S)-ylmethyl]-acetamide]
4 (≈ 9.65 µM) | CC(=O)NC[C@H]1CC(c2ccc(-c3ccc(CNCc4ccncc4)cc3)cc2)=NO1 [Compound 4132, N-[3-(4′-{[(Pyridin-4-ylmethyl)-amino]-methyl}-biphenyl-4-yl)-4,5-dihydro-isoxazol-5-(R)-ylmethyl]-acetamide]
0.5 (≈ 1.03 µM) | CC(=O)NC[C@H]1CN(c2ccc(-c3ccc([C@H](CO)N4CCN(C=O)CC4)cc3)c(F)c2)C(=O)O1 [Compound 1045, N-(3-{2-Fluoro-4′-[1-(R)-(4-formyl-piperazin-1-yl)-2-hydroxy-ethyl]-biphenyl-4-yl}-2-oxo-oxazolidin-5-(S)-ylmethyl)-acetamide]
1 (≈ 2.23 µM) | CC(=O)NC[C@H]1CN(c2ccc(-c3ccc(CNCc4ccccn4)cc3)c(F)c2)C(=O)O1 [Compound 4024, N-[3-(2-Fluoro-4′-{[(pyridin-2-ylmethyl)-amino]-methyl}-biphenyl-4-yl)-2-oxo-oxazolidin-5-(S)-ylmethyl]-acetamide]
2 (≈ 4.02 µM) | CC(=O)NC[C@H]1CN(c2ccc(-c3ccc(CN(Cc4csnn4)C(C)=O)cc3)c(F)c2)C(=O)O1 [Compound 4204, N-(3-{4′-[(Acetyl-[1,2,3]thiadiazol-4-ylmethyl-amino)-methyl]-2-fluoro-biphenyl-4-yl}-2-oxo-oxazolidin-5-(S)-ylmethyl)-acetamide]
1 (≈ 2.13 µM) | CC(=O)NC[C@H]1CN(c2ccc(-c3ccc(C(=O)NCc4ncsn4)cc3)c(F)c2)C(=O)O1 [Compound 4225, 4′-[5-(S)-(Acetylamino-methyl)-2-oxo-oxazolidin-3-yl]-2′-fluoro-biphenyl-4-carboxylic acid ([1,2,4]thiadiazol-3-ylmethyl)-amide]
2 (≈ 4.25 µM) | CCSc1nnnn1Cc1ccc(-c2ccc(N3C[C@H](CNC(C)=O)OC3=O)cc2F)cc1 [Compound 1081, N-{3-[4′-(5-Ethylsulfanyl-tetrazol-1-ylmethyl)-2-fluoro-biphenyl-4-yl]-2-oxo-oxazolidin-5-(S)-ylmethyl}-acetamide]
2 (≈ 4.69 µM) | CC(=O)NC[C@H]1CN(c2ccc(-c3ccc(CN4CC[C@@H](N)C4)cc3)c(F)c2)C(=O)O1 [Compound 1091, N-{3-[4′-(3-(R)-Amino-pyrrolidin-1-ylmethyl)-2-fluoro-biphenyl-4-yl]-2-oxo-oxazolidin-5-(S)-ylmethyl}-acetamide]
0.25 (≈ 0.551 µM) | CC(=O)NC[C@H]1CN(c2ccc(-c3ccc(CNCc4nnn(C)n4)cc3)c(F)c2)C(=O)O1 [Compound 4284, N-[3-(2-Fluoro-4′-{[(2-methyl-2H-tetrazol-5-ylmethyl)-amino]-methyl}-biphenyl-4-yl)-2-oxo-oxazolidin-5-(S)-ylmethyl]-acetamide]
4 (≈ 7.43 µM) | CCC(O)Cc1cn(CC(=O)NCc2ccc(-c3ccc(N4C[C@H](CNC(C)=O)OC4=O)cc3F)cc2)nn1 (stereo partly drawn) [Compound 4241, N-{4′-[5-(S)-(Acetylamino-methyl)-2-oxo-oxazolidin-3-yl]-2′-fluoro-biphenyl-4-ylmethyl}-2-[4-(2-hydroxy-butyl)-[1,2,3]triazol-1-yl]-acetamide]
4 (≈ 8.57 µM) | CC(=O)NC[C@H]1CN(c2ccc(-c3ccc(Cn4cc(CN(C)C)nn4)cc3)c(F)c2)C(=O)O1 [Compound 1013, N-{3-[4′-(4-Dimethylaminomethyl-[1,2,3]triazol-1-ylmethyl)-2-fluoro-biphenyl-4-yl]-2-oxo-oxazolidin-5-(S)-ylmethyl}-acetamide]
4 (≈ 8.38 µM) | CC(=O)NC[C@H]1CN(c2ccc(-c3ccc([C@H](O)CNCc4ccccc4)cc3)c(F)c2)C(=O)O1 [Compound 4246, N-{3-[4′-(2-Benzylamino-1-(S)-hydroxy-ethyl)-2-fluoro-biphenyl-4-yl]-2-oxo-oxazolidin-5-(S)-ylmethyl}-acetamide]
8 (≈ 15.4 µM) | CC(=O)NC[C@H]1CN(c2ccc(-c3ccc(CNC(=O)/C=C/c4ccc(=O)n(C)c4)cc3)c(F)c2)C(=O)O1 [Compound 4193, N-{4′-[5-(S)-(Acetylamino-methyl)-2-oxo-oxazolidin-3-yl]-2′-fluoro-biphenyl-4-ylmethyl}-3-(1-methyl-6-oxo-1,6-dihydro-pyridin-3-yl)-acrylamide]
8 (≈ 18.2 µM) | CC(=O)NC[C@H]1CN(c2ccc(-c3ccc(CNC(=O)C4CNC4)cc3)c(F)c2)C(=O)O1 [Compound 4291, Azetidine-3-carboxylic acid {4′-[5-(S)-(acetylamino-methyl)-2-oxo-oxazolidin-3-yl]-2′-fluoro-biphenyl-4-ylmethyl}-amide]
1 (≈ 1.92 µM) | CC(=O)NC[C@H]1CN(c2ccc(-c3ccc(Cn4cnc5c(NCCF)ncnc54)cc3)c(F)c2)C(=O)O1 [Compound 1102, N-(3-{2-Fluoro-4′-[6-(2-fluoro-ethylamino)-purin-9-ylmethyl]-biphenyl-4-yl}-2-oxo-oxazolidin-5-(S)-ylmethyl)-acetamide]
1 (≈ 2.36 µM) | CC(=O)NC[C@H]1CN(c2ccc(-c3ccc(Cn4cnc(N)n4)cc3)c(F)c2)C(=O)O1 [Compound 1069, N-{3-[4′-(3-Amino-[1,2,4]triazol-1-ylmethyl)-2-fluoro-biphenyl-4-yl]-2-oxo-oxazolidin-5-(S)-ylmethyl}-acetamide]
2 (≈ 4.44 µM) | CC(=O)NC[C@H]1CN(c2ccc(-c3ccc(CNCc4cccn4C)cc3)c(F)c2)C(=O)O1 [Compound 4059, N-[3-(2-Fluoro-4′-{[(1-methyl-1H-pyrrol-2-ylmethyl)-amino]-methyl}-biphenyl-4-yl)-2-oxo-oxazolidin-5-(S)-ylmethyl]-acetamide]
2 (≈ 4.07 µM) | CC(=O)NC[C@H]1CN(c2ccc(-c3ccc(NC(=O)NCCc4ccccn4)cc3)c(F)c2)C(=O)O1 [Compound 6003, N-(3-{2-Fluoro-4′-[3-(2-pyridin-2-yl-ethyl)-ureido]-biphenyl-4-yl}-2-oxo-oxazolidin-5-(S)-ylmethyl)-acetamide]
2 (≈ 3.78 µM) | CC(=O)NC[C@H]1CN(c2ccc(-c3ccc([C@H](CO)NCc4ccnc5ccccc45)cc3)c(F)c2)C(=O)O1 [Compound 4031, N-[3-(2-Fluoro-4′-{2-hydroxy-1-(R)-[(quinolin-4-ylmethyl)-amino]-ethyl}-biphenyl-4-yl)-2-oxo-oxazolidin-5-(S)-ylmethyl]-acetamide]
0.25 (≈ 0.553 µM) | CC(=O)NC[C@H]1CN(c2ccc(-c3ccc(CNCc4cc(C)on4)cc3)c(F)c2)C(=O)O1 [Compound 4229, N-[3-(2-Fluoro-4′-{[(5-methyl-isoxazol-3-ylmethyl)-amino]-methyl}-biphenyl-4-yl)-2-oxo-oxazolidin-5-(S)-ylmethyl]-acetamide]
8 (≈ 19.4 µM) | CC(=O)NC[C@H]1CN(c2ccc(-c3ccc(CNC4CNC4)cc3)c(F)c2)C(=O)O1 (racemic) [Compound 2011, N-{3-[4′-(Azetidin-3-(R/S)-ylaminomethyl)-2-fluoro-biphenyl-4-yl]-2-oxo-oxazolidin-5-(S)-ylmethyl}-acetamide]
2 | CC(=O)NC[C@H]1CN(c2ccc(-c3ccc(CN4CCC(C(N)=O)C4)cc3)c(F)c2)C(=O)O1 (mixture of isomers) [Compound 1093, 1-{4′-[5-(S)-(Acetylamino-methyl)-2-oxo-oxazolidin-3-yl]-2′-fluoro-biphenyl-4-ylmethyl}-pyrrolidine-3-(R/S)-carboxylic acid amide]
0.25 (≈ 0.537 µM) | CC(=O)NC[C@H]1CN(c2ccc(-c3ccc(CSCc4ccncc4)cc3)c(F)c2)C(=O)O1 [Compound 4211, N-{3-[2-Fluoro-4′-(pyridin-4-ylmethylsulfanylmethyl)-biphenyl-4-yl]-2-oxo-oxazolidin-5-(S)-ylmethyl}-acetamide]
